Key:
in vivo = conditions: C57BL/6, mouse; for AUC(0-t): po, AUCblood (AUC0-24 h)
Description: Blood samples were used to analyze whole-blood compound levels and were obtained either from tail-vein during the in-life part into EDTA tubes (CB300, Sarstedt, Germany) or from trunk blood at the day of necropsy into EDTA Eppendorf tubes (Milian S A, CatNoTOM-14, Fisher Scientific, Wohlen, Switzerland), or into serum tubes (CB300Z, Sarstedt, Nümbrecht, Germany).
Brain was removed immediately after decapitation, rinsed with saline and sectioned sagitally down the midline. The left half of the cerebellum was used to analyze compound level and was placed into a glass tube (Chromacol, 125×5-SV T051, Welwyn Garden City, United Kingdom), weighed and frozen in dry-ice, the left half of the forebrain (without olfactory bulb) was used for Aβ analysis, and was frozen on a metal plate on dry ice and placed into protein Lo-bind tube (003 0108.116, Eppendorf, Hamburg, Germany).
Ventral and dorsal skin were taken to analyze compound level, weighed and frozen on dry-ice.
Brain samples were mixed with 2 volumes of KH2PO4 buffer and homogenized using the Covaris® device. Skin samples were mixed with approx. 6-fold volumes of methanol/water and homogenized using a Precellys tube. Either 30 μL of blood, brain or skin homogenate were spiked with a structurally related internal standard and subsequently mixed with an at least 6-fold excess volume acetonitrile for protein precipitation. The supernatant was injected directly into the LC/MS/MS system for analysis.
For tissue exposure, only data at 4 and 24 h were available.

amyloid plaques = test: Plaque histology in APP23 mice (plaque numbers and plaque area); assay type: in vivo, mouse; conditions: for Number of large plaques / Number of medium plaques / Number of small plaques: normalized to total area (1000000 * mean ± SEM)
Method: Amyloid plaques were stained using a rabbit anti-Aβ primary antibody which recognizes the C-terminal part of the amyloid peptide (the antibody was raised as described in Schrader-Fischer G, Paganetti P A, 1996; Schrader-Fischer G et al., 1997). Activated astrocytes were detected using a commercial rabbit anti-GFAP (reference Z0334 from Dako Schweiz GmbH, Baar, Switzerland).
All stainings were performed using the fully automated instrument Ventana Discovery® Ultra (Roche Diagnostics Schweiz AG, Rotkreuz, Switzerland). All chemicals were provided by Roche Diagnostic.
All study animals were used and brain tissue sections of 3 micrometers were freshly cut and collected on SuperFrost+ slides. The tissues sections were de-paraffinized and rehydrated under solvent-free conditions (EZprep solution) followed by antigen retrieval (demasking) performed by heat retrieval cycles for 32 min in an EDTA based buffer (CC1 solution). Subsequently, slides were blocked for 4 min using the DISCOVERY Inhibitor (reference 07017944001 (Roche)). The primary antibody diluted at 1/20,000 in antibody diluent was manually added on tissue sections and incubated for 1h at room temperature. A short post-fixation (glutaraldehyde at 0.05%) was performed before applying the multimer UltraMap-anti Rabbit HRP ready to use antibody (reference 05269717001) for 16 min.
Detection was performed using the DISCOVERY FITC® following the manufacturer's recommendations. Slides were then heat denaturated at 92° C. for 20 min before a manual application of the second primary antibody (anti-GFAP diluted at 1/2,000) and incubated for 1 h. UltraMap-anti-Rabbit HRP antibody was used again for 20 min to detect GFAP in combination with the DISCOVERY Rhodamine kit (reference 07259883001).
The slides were washed and mounted using Prolong® Gold antifade reagent (reference P36931, ThermoFisher, Switzerland) and further scanned with the Hamamatsu slide scanner instrument (NanoZoomer 2.0 HT, scanning software NDP-Scan Vers. 2.5, Hamamatsu Photonics France, Swiss Office, Solothurn, Switzerland) at the 40× objective. The scanning settings were as follows: the exposure time with the DAPI filter was set at 57 ms as well as for the FITC filter. The exposure time for the TRITC filter (detection of Rhodamine) was set at 14.2 ms.
For the quantitative plaque evaluation based on image analysis, a proprietary image analysis platform (ASTORIA, Automated Stored Image Analysis) was developed based on MS Visual Studio 2010 and many functions from Matrox MIL V9 libraries (Matrox Inc, Quebec, Canada).
For the beta-amyloid plaque and neuroinflammation analysis, the following sequence of steps was performed: • Slides were scanned with Hamamatsu Nanozoomer at 40× magnification. For each fluorescence labelling (DAPI, FITC and TRITC), a separate image was created • Manually outline ROIs (regions of interest) for defining cortex in brain sections for Aβ plaque assessment on the green FITC channel image, then use the resulting outline also for the other two channel images (copy resulting xml files) • Run the in-house developed ImageScope (V12.1.0.5029, Aperio Inc., USA) plug-in for creation and export of *.tif image tiles (at 10× magnification) for each of the 3 fluorescence channels
Image Batch Processing: • Obtain the combined true color image (DAPI, FITC, TRITC) for each section through accessing each individual fluorescence channel image • Segmentation of valid sample (within outlined ROI) from black unstained background • Apply adaptive thresholding technique for segmentation of objects in green channel image […]

Aβ42 = test: Acute PK/PD in APOE4-TR mice: Aβ42 in CSF; assay type: in vivo, mouse; conditions: for Average Aβ42 CSF ± SD: n = 6
Method: Compound 1 was formulated as a suspension. Vehicle or compound was given by oral administration in a volume of 10 ml/kg once. Vehicle: 0.1% Tween80 in 0.5% Methylcellulose in water.
Analysis of Aβ40 in Mouse Brain and Aβ40 and Aβ42 in CSF

[1] = Body weight, chronic 8-week dosing in wild-type mice; assay type: in vivo, mouse; conditions: C57BL/6 mice, 8 weeks chronic treatment
Method: Compound 1 and NB-360 were formulated as a suspension. […] Vehicle: […] in 0.5% methylcellulose in water.
Body weight was taken 3 times per week (Monday, Wednesday, Friday). Subjective scoring of any hair colour changes was performed once weekly (Wednesday). Scores (% of body with grey fur): 0: No change; 1: Spots; 2: >30%; 3: >50%; 4: >75%; 5: 100%. Animals were photo-documented when fur color change was observed. Final fur color scoring was performed blinded and by a person not involved in the study.

## C[C@@]1(c2nc(NC(=O)c3ncc(C(F)(F)F)cc3Cl)ccc2F)CO[C@@](C)(C(F)(F)F)C(N)=N1 [Compound 1, N-(6-((3R,6R)-5-amino-3,6-dimethyl-6-(trifluoromethyl)-3,6-dihydro-2H-1,4-oxazin-3-yl)-5-fluoropyridin-2-yl)-3-chloro-5-(trifluoromethyl)picolinamide]
In vivo
  Kp: 3.2
In vivo; 8 umol/kg
  AUC(0-t): 3.43 µM·h
In vivo; 50 umol/kg
  AUC(0-t): 28.9 µM·h
Amyloid plaques; APP23, 0.03 g/kg food
  Number of large plaques: 0.09 ± 0.02
  Number of medium plaques: 1.06 ± 0.14
  Number of small plaques: 10.06 ± 1.55
Amyloid plaques; APP23, 0.03 g/kg vs vehicle
  Number of large plaques, change vs vehicle: −29.9%
  Number of medium plaques, change vs vehicle: −22.9%
  Number of small plaques, change vs vehicle: −30.3%
  Total plaque area, change vs vehicle: −26.4%
Amyloid plaques; APP23, 0.3 g/kg food
  Number of large plaques: 0.04 ± 0.01
  Number of medium plaques: 0.58 ± 0.10
  Number of small plaques: 5.78 ± 0.75
Amyloid plaques; APP23, 0.3 g/kg vs vehicle
  Number of large plaques, change vs vehicle: −68.2%
  Number of medium plaques, change vs vehicle: −57.9%
  Number of small plaques, change vs vehicle: −60.0%
  Total plaque area, change vs vehicle: −59.5%
Amyloid plaques; APP23, high dose group
  reduction of plaque load (immunohistochemistry): ~70%
Amyloid plaques; APP23, high dose treatment group
  reduction of the increase in plaques and total plaque area: about 60%
Amyloid plaques; APP23, low dose group
  reduction of plaque load (immunohistochemistry): ~20%
Amyloid plaques; APP23, low dose treatment group
  reduction of the increase in plaques and total plaque area: about 25%
Aβ42; 3 μmol/kg acute
  Mini AUEC (CSF Aβ42): 38%
Aβ42; 3 μmol/kg acute p.o., 4 h
  Average Aβ42 CSF ± SD: 0.0524 ± 0.02173 pmol/mL
Aβ42; 3 μmol/kg acute p.o., 24 h
  Average Aβ42 CSF ± SD: 0.09317 ± 0.05304 pmol/mL
Aβ42; 3 μmol/kg acute, 4 h
  % reduction vs vehicle (CSF Aβ42): 55%
Aβ42; 3 μmol/kg acute, 24 h
  % reduction vs vehicle (CSF Aβ42): 21%
Aβ42; 10 μmol/kg acute
  Mini AUEC (CSF Aβ42): 50%
Aβ42; 10 μmol/kg acute p.o., 4 h
  Average Aβ42 CSF ± SD: 0.02318 ± 0.00446 pmol/mL
Aβ42; 10 μmol/kg acute p.o., 24 h
  Average Aβ42 CSF ± SD: 0.09438 ± 0.09019 pmol/mL
Aβ42; 10 μmol/kg acute, 4 h
  % reduction vs vehicle (CSF Aβ42): 80%
Aβ42; 10 μmol/kg acute, 24 h
  % reduction vs vehicle (CSF Aβ42): 20%
Aβ42; 30 μmol/kg acute
  Mini AUEC (CSF Aβ42): 81%
Aβ42; 30 μmol/kg acute p.o., 4 h
  Average Aβ42 CSF ± SD: 0.0080 ± 0.00395 pmol/mL
Aβ42; 30 μmol/kg acute p.o., 24 h
  Average Aβ42 CSF ± SD: 0.03717 ± 0.02438 pmol/mL
Aβ42; 30 μmol/kg acute, 4 h
  % reduction vs vehicle (CSF Aβ42): 93%
Aβ42; 30 μmol/kg acute, 24 h
  % reduction vs vehicle (CSF Aβ42): 68%
[1]
  body weight difference compared to vehicle: No overall significant body weight difference
